Tests used:
ASIC1a = target: T1, ASIC1a (Rattus norvegicus, UniProt P55926); assay: whole cell patch clamp electrophysiology, ASIC1a; assay type: cell-based; details: for Fraction of Control, ASIC1a - pH Dependency: 10 μM compound
T1 construct: expressed in transfected cells; host or cells: HEK cells according to b213
T1 sequence (P55926 1-526): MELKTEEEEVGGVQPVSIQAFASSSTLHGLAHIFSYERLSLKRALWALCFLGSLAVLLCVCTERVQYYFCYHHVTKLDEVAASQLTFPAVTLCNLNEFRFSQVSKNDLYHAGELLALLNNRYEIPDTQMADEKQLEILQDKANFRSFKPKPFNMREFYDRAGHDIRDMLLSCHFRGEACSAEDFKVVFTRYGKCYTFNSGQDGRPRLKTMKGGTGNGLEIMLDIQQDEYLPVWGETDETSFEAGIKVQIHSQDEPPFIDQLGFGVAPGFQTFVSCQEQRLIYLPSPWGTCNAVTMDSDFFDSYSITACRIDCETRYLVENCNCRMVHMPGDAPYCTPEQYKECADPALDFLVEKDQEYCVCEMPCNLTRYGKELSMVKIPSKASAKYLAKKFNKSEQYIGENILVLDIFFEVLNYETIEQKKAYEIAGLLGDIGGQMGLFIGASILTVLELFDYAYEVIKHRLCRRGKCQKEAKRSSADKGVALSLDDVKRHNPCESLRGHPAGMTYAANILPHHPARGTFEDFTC
Description: (§1) Another example of an in vitro assessment method consists of using mammalian heterologous expression systems, which are known to the skilled in the art, and include a variety of mammalian cell lines such as COS, HEK, e.g., HEK293and/or CHO, cells. Cell lines are transfected with gated ion channel(s) and used to perform electrophysiology as follows:
(§2) All experiments are performed at room temperature (20-25° C.) in voltage clamp using conventional whole cell patch clamp methods (Neher, E., et al. (1978) Pfluegers Arch 375:219-228).
(§3) The amplifier used is the EPC-9 (HEKA-electronics, Lambrect, Germany) run by a Macintosh G3 computer via an ITC-16 interface. Experimental conditions are set with the Pulse-software accompanying the amplifier. Data is low pass filtered and sampled directly to hard-disk at a rate of 3 times the cut-off frequency.
(§4) Pipettes are pulled from borosilicate glass using a horizontal electrode puller (Zeitz-lnstrumente, Augsburg, Germany). The pipette resistances are 2-3 MOhms in the salt solutions used in these experiments. The pipette electrode is a chloridized silver wire, and the reference is a silver chloride pellet electrode (In Vivo Metric, Healdsburg, USA) fixed to the experimental chamber. The electrodes are zeroed with the open pipette in the bath just prior to sealing.
(§5) Coverslips with the cells are transferred to a 15 μl experimental chamber mounted on the stage of an inverted microscope (IMT-2, Olympus) supplied with Nomarski optics. Cells are continuously superfused with extracellular saline at a rate of 2.5 ml/min. After giga-seal formation, the whole cell configuration is attained by suction. The cells are held at a holding voltage of −60 mV and at the start of each experiment the current is continuously measured for 45 s to ensure a stable baseline. Solutions of low pH (<7) are delivered to the chamber through a custom-made gravity-driven flowpipe, the tip of which is placed approximately 50 μm from the cell. Application is triggered when the tubing connected to the flowpipe is compressed by a valve controlled by the Pulse-software. Initially, low pH (in general, pH 6.5) is applied for 1 s every 45 s. The sample interval during application is 550 μs. After stable responses are obtained, the extracellular saline as well as the low-pH solution are switched to solutions containing the compound to be tested. The compound is present until responses of a repeatable amplitude are achieved. Current amplitudes are measured at the peak of the responses, and effect of the compounds is calculated as the amplitude at compound equilibrium divided by the amplitude of the current evoked by the pulse just before the compound was included.
The following salt solutions are used: extracellular solution (mM): NaCl (140), KCl (4), CaCl2 (2), MgCl2 (4), HEPES (10, pH 7.4); intracellular solution (mM): KCl (120), KOH (31), MgCl2 (1.785), […] (10), HEPES (10, pH 7.2). In general, compounds for testing are dissolved in 50% DMSO at 500 fold the highest concentration used.
The cDNA for ASIC1a and ASIC3 can be cloned from rat poly(A)^+ mRNA and put into expression vectors according to Hesselager et al. (J Biol Chem. 279(12):11006-15 2004). All constructs are expressed in CHO-K1 cells (ATCC no. CCL61). CHO-K1 cells are cultured at 37° C. in a humidified atmosphere of 5% CO2 and 95% air and passaged twice every week. The cells are maintained in DMEM (10 mM HEPES, 2 mM glutamax) supplemented with 10% fetal bovine serum and 2 mM L-proline (Life Technologies). […]

ASIC3 = target: T2, ASIC3 (Rattus norvegicus, UniProt O35240); assay: whole cell patch clamp electrophysiology, ASIC3; assay type: cell-based
T2 construct: expressed in transfected cells
T2 sequence (O35240 1-533): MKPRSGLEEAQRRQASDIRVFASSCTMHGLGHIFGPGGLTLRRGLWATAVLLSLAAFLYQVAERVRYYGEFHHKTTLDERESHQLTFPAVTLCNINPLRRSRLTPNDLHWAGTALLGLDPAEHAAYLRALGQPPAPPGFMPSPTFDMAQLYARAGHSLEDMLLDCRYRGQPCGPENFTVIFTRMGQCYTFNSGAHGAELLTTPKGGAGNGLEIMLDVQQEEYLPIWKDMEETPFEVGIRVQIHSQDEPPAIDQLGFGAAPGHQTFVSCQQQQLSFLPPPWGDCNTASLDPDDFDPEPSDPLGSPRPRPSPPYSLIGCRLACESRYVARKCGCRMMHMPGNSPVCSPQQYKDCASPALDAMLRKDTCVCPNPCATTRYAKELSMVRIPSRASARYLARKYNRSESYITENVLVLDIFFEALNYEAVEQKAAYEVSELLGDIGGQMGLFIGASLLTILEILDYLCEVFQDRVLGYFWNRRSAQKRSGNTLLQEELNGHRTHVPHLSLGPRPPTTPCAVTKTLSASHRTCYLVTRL
Description: as §1, §2, §3, §4
as §5, with “included. […]” for “included.”

C=CC1CN2CCC1CC2[C@@H](OC(=O)CCC1CCCC1)c1ccnc2ccccc12 (some centres unmarked) [Compound A]
Fraction of Control, ASIC1a - pH Dependency (ASIC1a; pH 5.0): greater than .85 | Fraction of Control, ASIC1a - pH Dependency (ASIC1a; pH 6.0): greater than .85 | IC50 (ASIC1a; patch clamp, HEK cells, pH 6.5): 17 to 23 µM | Fraction of Control, ASIC3 - pH Dependency (ASIC3; 10 μM compound, pH 5.0): greater than .75 | IC50 (ASIC3; patch clamp, pH 6.5): 4 to 6 µM
